From ChEMBL document CHEMBL5325456, “5-(4-Hydroxyphenyl)-3H-1,2-dithiole-3-thione derivatives of brefeldin A: Design, synthesis and cytotoxicity in MDA-MB-231 human breast cancer cells” (Bioorg Med Chem, 2023)

What was measured:
[1] = test system: A549; assay: Antiproliferative activity against human A549 cells assessed as reduction in cell viability incubated for 48 hrs by CCk-8 assay; assay type: functional, cell-based; settings: A549, 48 h
[2] = test system: MDA-MB-231; assay: Induction of cell cycle arrest in human MDA-MB-231 cells assessed as accumulation of cells at G2 phase at 82.5 nM incubated for 48 hrs by flow cytometry analysis (reference value: 16.05 %); assay type: functional
[3] = test system: HeLa; assay: Antiproliferative activity against human HeLa cells assessed as reduction in cell viability incubated for 48 hrs by CCk-8 assay; assay type: functional, cell-based
[4] = test system: MDA-MB-231; assay: Inhibition of cell migration in human MDA-MB-231 cells assessed as wound healing rate at 0.165 uM measured for 24 hrs by scratch wound healing assay (Rvb= 230.22 +/- 32.21 %); assay type: functional; set-up: scale not given: the % may be the effect or the level left
[5] = test system: MDA-MB-231; assay: Induction of cell cycle arrest in human MDA-MB-231 cells assessed as accumulation of cells at S phase at 0.33 uM incubated for 48 hrs by flow cytometry analysis (reference value: 36.51%); assay type: functional
[6] = test system: MDA-MB-231; assay: Induction of apoptosis in human MDA-MB-231 cells assessed as late apoptotic cells at 82.5 nM incubated for 48 hrs by Annexin-V/FITC-PI staining based flow cytometry analysis (reference value: 2.34 %); assay type: functional
[7] = test system: MDA-MB-231; assay: Antiproliferative activity against human MDA-MB-231 cells assessed as reduction in cell viability incubated for 48 hrs by CCk-8 assay; assay type: functional, cell-based; settings: MDA-MB-231, 48 h
[8] = test system: MDA-MB-231; assay: Induction of apoptosis in human MDA-MB-231 cells assessed as necrotic cells at 0.165 uM incubated for 48 hrs by Annexin-V/FITC-PI staining based flow cytometry analysis (reference value: 0.99 %); assay type: functional
[9] = test system: MDA-MB-231; assay: Induction of cell cycle arrest in human MDA-MB-231 cells assessed as accumulation of cells at S phase at 0.165 uM incubated for 48 hrs by flow cytometry analysis (reference value: 36.51%); assay type: functional
[10] = test system: MDA-MB-231; assay: Induction of apoptosis in human MDA-MB-231 cells assessed as viable cells at 0.33 uM incubated for 48 hrs by Annexin-V/FITC-PI staining based flow cytometry analysis (reference value: 93.74 %); assay type: functional; settings: read-out: Activity
[11] = test system: MDA-MB-231; assay: Induction of cell cycle arrest in human MDA-MB-231 cells assessed as accumulation of cells at G1 phase at 82.5 nM incubated for 48 hrs by flow cytometry analysis (reference value: 47.44 %); assay type: functional
[12] = test system: MDA-MB-231; assay: Inhibition of cell invasion in human MDA-MB-231 cells incubated for 24 hrs by crystal violet staining based transwell assay; assay type: functional; settings: dose 82.5-330 nM
[13] = test system: MDA-MB-231; assay: Inhibition of cell migration in human MDA-MB-231 cells assessed as wound healing rate at 0.33 uM measured immediately by scratch wound healing assay (Rvb= 871.53 +/- 3.02 %); assay type: functional; set-up: scale not given: the % may be the effect or the level left
[14] = test system: Cell membrane; assay: Induction of mitochondrial membrane potential loss in human MDA-MB-231 cells assessed as proportion of MMP decreased cells at 0.165 uM and measured for 48 hrs by JC-1 staining based flow cytometry assay (reference value: 4.40%); assay type: subcellular; set-up: scale not given: the % may be the effect or the level left
[15] = test system: DU-145; assay: Antiproliferative activity against human DU-145 cells assessed as reduction in cell viability incubated for 48 hrs by CCk-8 assay; assay type: functional, cell-based; settings: DU-145, 48 h
[16] = test system: HepG2; assay: Antiproliferative activity against human HepG2 cells assessed as reduction in cell viability incubated for 48 hrs by CCk-8 assay; assay type: functional, cell-based; settings: HepG2, 48 h
[17] = test system: MDA-MB-231; assay: Induction of cell cycle arrest in human MDA-MB-231 cells assessed as accumulation of cells at G1 phase at 0.165 uM incubated for 48 hrs by flow cytometry analysis (reference value: 47.44 %); assay type: functional
[18] = test system: MDA-MB-231; assay: Induction of apoptosis in human MDA-MB-231 cells assessed as early apoptotic cells at 0.33 uM incubated for 48 hrs by Annexin-V/FITC-PI staining based flow cytometry analysis (reference value: 2.93 %); assay type: functional
[19] = test system: MDA-MB-231; assay: Induction of DNA damage in human MDA-MB-231 cells assessed as tail DNA at 0.33 uM incubated for 48 hrs by Comet assay (reference value: 0.007 %); assay type: functional
[20] = test system: MDA-MB-231; assay: Inhibition of cell migration in human MDA-MB-231 cells assessed as wound healing rate at 0.165 uM measured immediately by scratch wound healing assay (Rvb= 871.53 +/- 3.02 %); assay type: functional; set-up: scale not given: the % may be the effect or the level left
[21] = test system: MDA-MB-231; assay: Induction of cell cycle arrest in human MDA-MB-231 cells assessed as accumulation of cells at G2 phase at 0.33 uM incubated for 48 hrs by flow cytometry analysis (reference value: 16.05 %); assay type: functional
[22] = test system: MDA-MB-231; assay: Induction of apoptosis in human MDA-MB-231 cells assessed as necrotic cells at 82.5 nM incubated for 48 hrs by Annexin-V/FITC-PI staining based flow cytometry analysis (reference value: 0.99 %); assay type: functional
[23] = test system: MDA-MB-231; assay: Induction of DNA damage in human MDA-MB-231 cells assessed as tail DNA at 0.165 uM incubated for 48 hrs by Comet assay (reference value: 0.007 %); assay type: functional
[24] = test system: MDA-MB-231; assay: Induction of cell cycle arrest in human MDA-MB-231 cells assessed as accumulation of cells at G1 phase at 0.33 uM incubated for 48 hrs by flow cytometry analysis (reference value: 47.44 %); assay type: functional
[25] = test system: MDA-MB-231; assay: Induction of apoptosis in human MDA-MB-231 cells assessed as viable cells at 0.165 uM incubated for 48 hrs by Annexin-V/FITC-PI staining based flow cytometry analysis (reference value: 93.74 %); assay type: functional; settings: read-out: Activity
[26] = Selectivity index, ratio of IC50 for antiproliferative activity against human L02 cells to IC50 for antiproliferative activity against human MDA-MB-231 cells; assay type: toxicity, cell-based; settings: L02 cells and MDA-MB-231 cells, read-out: Ratio IC50
[27] = test system: MDA-MB-231; assay: Induction of apoptosis in human MDA-MB-231 cells assessed as late apoptotic cells at 0.33 uM incubated for 48 hrs by Annexin-V/FITC-PI staining based flow cytometry analysis (reference value: 2.34 %); assay type: functional
[28] = test system: MDA-MB-231; assay: Induction of cell cycle arrest in human MDA-MB-231 cells assessed as accumulation of cells at G2 phase at 0.165 uM incubated for 48 hrs by flow cytometry analysis (reference value: 16.05 %); assay type: functional
[29] = test system: MDA-MB-231; assay: Inhibition of cell migration in human MDA-MB-231 cells assessed as wound healing rate at 0.33 uM measured for 24 hrs by scratch wound healing assay (Rvb= 230.22 +/- 32.21 %); assay type: functional; set-up: scale not given: the % may be the effect or the level left
[30] = test system: MDA-MB-231; assay: Inhibition of cell migration in human MDA-MB-231 cells assessed as wound healing rate at 82.5 nM measured immediately by scratch wound healing assay (Rvb= 871.53 +/- 3.02 %); assay type: functional; set-up: scale not given: the % may be the effect or the level left
[31] = Antiproliferative activity against human L02 cells assessed as reduction in cell viability incubated for 48 hrs by CCk-8 assay; assay type: toxicity, cell-based
[32] = test system: A-375; assay: Antiproliferative activity against human A-375 cells assessed as reduction in cell viability incubated for 48 hrs by CCk-8 assay; assay type: functional, cell-based; settings: A-375, 48 h
[33] = test system: MDA-MB-231; assay: Induction of apoptosis in human MDA-MB-231 cells assessed as late apoptotic cells at 0.165 uM incubated for 48 hrs by Annexin-V/FITC-PI staining based flow cytometry analysis (reference value: 2.34 %); assay type: functional

In the case of `C[C@H]1CCC/C=C/[C@@H]2C[C@H](O)C[C@H]2[C@H](OC(=O)CCCC(=O)OCCOc2ccc(-c3cc(=S)ss3)cc2)/C=C/C(=O)O1`, the IC50 [1] is reported as 0.58 µM, the Activity [2] is reported as 13.5% and the IC50 [3] is reported as 0.85 µM. For the same compound, the Activity [4] was 465.92%, the Activity [5] was 22.99% and the Activity [6] was 5.82%. For the same compound, the IC50 [7] was 0.33 µM, the Activity [8] was 1.87% and the Activity [9] was 30.39%. For the same compound, the viability at 0.33 µM [10] was 43.2%, the Activity [11] was 56.27% and the inhibition [12] was “Dose-Dependent Effect”. It also gave an Activity [13] of 844.92%, an Activity [14] of 31.7% and an IC50 [15] of 0.69 µM. It also gave an IC50 [16] of 0.75 µM, an Activity [17] of 60.09% and an Activity [18] of 21.05%. It also gave an Activity [19] of 49.49%, an Activity [20] of 830.55% and an Activity [21] of 7.13%. The Activity [22] was 2.12%, the Activity [23] was 39.11% and the Activity [24] was 69.88%. It also gave a viability at 0.165 µM [25] of 71.7%, a selectivity ratio [26] of 5.3 and an Activity [27] of 31.61%. It also gave an Activity [28] of 9.52%, an Activity [29] of 610.67% and an Activity [30] of 832.33%. The IC50 at 48 h [31] was 1.75 µM, the IC50 [32] was 1.82 µM and the Activity [33] was 16.31%.
